{"source": "patent US4233217A", "about": "“Substituted 1,2,4,5-tetrahydro-3H, 3 benzazepines” (priority 1979, dated 1980)", "key": {"[1]": {"assay": "I.P. symptomatology: highest tolerated dose and median lethal dose (Table IV)", "format": "in vivo"}, "in vivo": {"assay": "in vivo", "conditions": "po"}, "[2]": {"assay": "Mouse tail stimulation (MTS) (Table IV)", "format": "in vivo", "design": "unit not given here", "conditions": "S.C."}, "Morphine Analgesia": {"test_system": "Morphine Analgesia", "format": "in vivo, rat", "conditions": "for narcotic antagonist potency relative to pentazocine: compared with pentazocine, Table II"}, "[3]": {"assay": "Analgesic activity summarized over hot plate and writhing methods (Table I)", "conditions": "for analgesic activity, ranking among tested compounds / separation between effective dose and toxic or lethal doses: Table I; for separation between effective dose and toxic or lethal doses: therapeutic index"}, "[4]": {"assay": "Narcotic antagonism (Table IV)", "format": "in vivo", "conditions": "I.P."}, "[5]": {"assay": "Local anesthetic sciatic block (Table IV)", "format": "in vivo", "conditions": "1%"}, "[6]": {"assay": "Writhing analgesia (Table I)", "format": "in vivo", "conditions": "oral; vs pentazocine"}}, "note": "Counter-ions that a name gives are not always drawn.", "data": [{"smiles": "Oc1ccc2c(c1)CCN(C[C@H]1C[C@@H]1c1ccccc1)CC2", "note": "(relative stereo) [Example 30, 7-Hydroxy-3(trans-2-phenylcyclopropylmethyl)-1,2,4,5-tetrahydro-3H,3-benzazepine]", "values": [{"measurement": "LD50", "setting": "[1]; in vivo, ip, I.P.", "value": "> 1000", "unit": "mg/kg"}]}, {"smiles": "CC1Cc2ccccc2CCN1", "note": "(single isomer, unassigned; (+)) [Example 49, (+)-2-Methyl-1,2,4,5-tetrahydro-3H,3-benzazepine hydrochloride]", "values": [{"measurement": "LD50 (median lethal dose)", "setting": "[1]; I.P., hydrochloride", "value": 200, "unit": "mg/kg"}]}, {"smiles": "CC1Cc2ccccc2CCN1", "note": "(single isomer, unassigned; (-)) [Example 48, (-)-2-Methyl-1,2,4,5-tetrahydro-3H,3-benzazepine]", "values": [{"measurement": "LD50 (median lethal dose)", "setting": "[1]; I.P.", "value": 60, "unit": "mg/kg"}]}, {"smiles": "CC1Cc2ccccc2CCN1C", "note": "(single isomer, unassigned; (-)) [Example 54, (-)-2,3-Dimethyl-1,2,4,5-tetrahydro-3H,3-benzazepine hydrochloride]", "values": [{"measurement": "LD50 (median lethal dose)", "setting": "[1]; I.P., hydrochloride", "value": 60, "unit": "mg/kg"}]}, {"smiles": "COc1ccc2c3c1O[C@H]1[C@@H](O)C=C[C@H]4[C@@H](C2)N(C)CC[C@@]341", "note": "[Codeine]", "values": [{"measurement": "LD50", "setting": "in vivo", "value": 540, "unit": "mg/kg"}]}, {"smiles": "COc1ccc2c(c1)CCNCC2", "note": "[Example 1, 7-Methoxy-1,2,4,5-tetrahydro-3H,3-benzazepine]", "values": [{"measurement": "MTS (mouse tail stimulation)", "setting": "[2]", "value": "> 3"}]}, {"smiles": "CC(C)=CCN1CCc2ccc(O)cc2CC1", "note": "[Example 4, 3-(3,3-Dimethylallyl)-7-hydroxy-1,2,4,5-tetrahydro-3H,3-benzazepine]", "values": [{"measurement": "MTS (mouse tail stimulation)", "setting": "[2]", "value": "> 56"}, {"measurement": "narcotic antagonist potency relative to pentazocine", "setting": "Morphine Analgesia", "value": "more potent antagonist than pentazocine"}]}, {"smiles": "CC(=O)Oc1ccc2c(c1)CCN(CC=C(C)C)CC2", "note": "[Example 5, 7-Acetoxy-3-(3,3-dimethylallyl)-1,2,4,5-tetrahydro-3H,3-benzazepine hydrochloride]", "values": [{"measurement": "MTS (mouse tail stimulation)", "setting": "[2]", "value": "> 30"}]}, {"smiles": "C=CCN1CCc2ccc(OC)cc2CC1", "note": "[Example 14, 3-Allyl-7-methoxy-1,2,4,5-tetrahydro-3H,3-benzazepine]", "values": [{"measurement": "narcotic antagonist potency relative to pentazocine", "setting": "Morphine Analgesia", "value": "about equipotent to pentazocine"}]}, {"smiles": "COc1ccc2c(c1)CCN(C)CC2", "note": "[Example 18, 7-Methoxy-3-methyl-1,2,4,5-tetrahydro-3H,3-benzazepine]", "values": [{"measurement": "oral analgesic activity", "setting": "[3]", "value": "active by the oral route"}]}, {"smiles": "COc1ccc2c(c1)CCN(CCc1ccccc1)CC2", "note": "[Example 24, 7-Methoxy-3-phenethyl-1,2,4,5-tetrahydro-3H,3-benzazepine]", "values": [{"measurement": "MTD", "setting": "[1]; in vivo, ip, I.P. symptomatology, read-out: HTD (highest tolerated dose)", "value": 30, "unit": "mg/kg"}, {"measurement": "MTS (mouse tail stimulation)", "setting": "[2]", "value": 5}, {"measurement": "narcotic antagonist potency relative to pentazocine", "setting": "Morphine Analgesia", "value": "about equipotent to pentazocine"}, {"measurement": "Narcotic Antagonism", "setting": "[4]", "value": "Positive"}, {"measurement": "analgesic activity, ranking among tested compounds", "setting": "[3]", "value": "most active compounds"}, {"measurement": "separation between effective dose and toxic or lethal doses", "setting": "[3]", "value": "greatest separation between effective dose and toxic or lethal doses"}]}, {"smiles": "Oc1ccc2c(c1)CCN(CCc1ccccc1)CC2", "note": "[Example 25, 7-Hydroxy-3-phenethyl-1,2,4,5-tetrahydro-3H,3-benzazepine]", "values": [{"measurement": "HNSD (Highest Non Symptomatic Dose)", "setting": "IP (Intraperitoneal)", "value": 55, "unit": "mg/kg"}]}, {"smiles": "COc1ccc2c(c1)CCN(CC=Cc1ccccc1)CC2", "note": "[Example 28, 7-Methoxy-3-(3-phenylallyl)-1,2,4,5-tetrahydro-3H,3-benzazepine]", "values": [{"measurement": "MTS (mouse tail stimulation)", "setting": "[2]", "value": 10}, {"measurement": "narcotic antagonist potency relative to pentazocine", "setting": "Morphine Analgesia", "value": "about equipotent to pentazocine"}, {"measurement": "oral analgesic activity", "setting": "[3]", "value": "active by the oral route"}]}, {"smiles": "COc1ccc2c(c1)CCN(CCN1CCN(c3ccccc3)CC1)CC2", "note": "[Example 31, 7-Methoxy-3-[2-(4-phenyl-1-piperazinyl)ethyl]-1,2,4,5-tetrahydro-3H,3-benzazepine]", "values": [{"measurement": "MTS (mouse tail stimulation)", "setting": "[2]", "value": 20}, {"measurement": "analgesic activity, ranking among tested compounds", "setting": "[3]", "value": "most active compounds"}, {"measurement": "separation between effective dose and toxic or lethal doses", "setting": "[3]", "value": "greatest separation between effective dose and toxic or lethal doses"}]}, {"smiles": "CC(C)=CCN1CCc2ccc(O)cc2CC1C", "note": "(stereo not shown) [Example 34, 3-(3,3-Dimethylallyl)-8-hydroxy-2-methyl-1,2,4,5-tetrahydro-3H,3-benzazepine hydrochloride]", "values": [{"measurement": "MTS (mouse tail stimulation)", "setting": "[2]", "value": "> 40"}]}, {"smiles": "COc1ccc2c(c1)CC(C)N(CCc1ccccc1)CC2", "note": "(stereo not shown) [Example 36, 8-Methoxy-2-methyl-3-phenethyl-1,2,4,5-tetrahydro-3H,3-benzazepine hydrochloride]", "values": [{"measurement": "MTS (mouse tail stimulation)", "setting": "[2]", "value": 10}, {"measurement": "Local Anesthetic Sciatic Block", "setting": "[5]", "value": "Insoluable"}]}, {"smiles": "c1ccc2c(c1)CCN(CC1CC1)CC2", "note": "[Example 37, 3-Cyclopropylmethyl-1,2,4,5-tetrahydro-3H,3-benzazepine hydrochloride]", "values": [{"measurement": "MTS (mouse tail stimulation)", "setting": "[2]", "value": 10}, {"measurement": "writhing activity relative to pentazocine", "setting": "[6]", "value": "approximately twice as active as pentazocine"}, {"measurement": "oral analgesic activity", "setting": "[3]", "value": "active by the oral route"}]}, {"smiles": "C=CCN1CCc2ccc(OC)cc2CC1C", "note": "(stereo not shown) [Example 38, 3-Allyl-8-methoxy-2-methyl-1,2,4,5-tetrahydro-3H,3-benzazepine hydrochloride]", "values": [{"measurement": "MTS (mouse tail stimulation)", "setting": "[2]", "value": "> 10"}]}, {"smiles": "CC1Cc2cc(O)ccc2CCN1CC1CC1", "note": "(stereo not shown) [Example 41, 3-Cyclopropylmethyl-8-hydroxy-2-methyl-1,2,4,5-tetrahydro-3H,3-benzezepine hydrochloride]", "values": [{"measurement": "MTS (mouse tail stimulation)", "setting": "[2]", "value": "> 30"}]}, {"smiles": "C=CCN1CC[C@]23c4c5ccc(O)c4O[C@H]2[C@@H](O)C=C[C@H]3[C@H]1C5", "note": "[Nalorphine, reference compound]", "values": [{"measurement": "Antagonism of Morphine Analgesia, times more active than compounds listed above", "setting": "Morphine Analgesia; rat, in vivo, sc", "value": "20-100"}]}, {"smiles": "CC(C)=CCN1CCC2(C)c3cc(O)ccc3CC1C2C", "note": "(stereo not shown) [Pentazocine, reference compound]", "values": [{"measurement": "LDSO", "setting": "IP", "value": "> 500", "unit": "mg/kg"}]}]}
